Experiments:
Assay type in all cases: cell-based, human
A549 cells = experiment: Dynamic monitoring of drug interaction with target cells by RT-CES
Procedure: Drug Treatment and Cytotoxicity Assessment. […] The indicated cell numbers were seeded per chamber of ACEA's 16X or 96X E-Plate (cartridge for monitoring cell-substrate impedance) in 100 μL final volume.
In order to observe the kinetics of drug interaction with target cells, A549 non-small lung cancer cells were seeded in ACEA 96X E-Plate™ and continuously monitored until the cells reached the log growth phase at which point different concentrations of paclitaxel were added to the cells at the indicated final concentration. […] While it remains to be determined if this phenomenon is due to metabolism and inactivation of paclitaxel or due to the emergence of paclitaxel-resistant subpopulation, this experiment clearly exemplifies the tremendous advantage of real-time measurement which is offered by the RT-CES system and allows the user to the opportunity to observe and assess the entire history of drug interaction with the target cells which provides further information in addition to cell viability or cytotoxicity. The phenomenon observed in FIG. 20A would've been easily missed by traditional single-point assays such as MTT.
Yet another major advantage of using the RT-CES system to continually monitor the interaction of drugs with target cells is that the user can obtain insight into the mechanism of action of the drug of interest. […] The cells were treated with either DMSO as the vehicle control or with 100 μM Olomoucine which is a CDK inhibitor and induces cell cycle arrest either at G1→S transition or at the G2→M transition, depending on the cell line. […] The control cells treated with DMSO continue to proliferate until they reach confluence, at which time they are contact inhibited and the Cell Index recording levels off. […]
(§1) Inhibition of NK-mediated cytolysis of target cells by agents which block the signaling pathways leading to cytotoxicity. […] We calculated percent inhibition of cytolysis for both inhibitors at different time points after NK addition. […]

[1] = system: NK-92-mediated cytolysis of A549 cells; experiment: Inhibition of NK-92-mediated cytolysis of target cells by signaling pathway inhibitors (RT-CES)
Procedure: (FIG. 31A) A549 cells were seeded in the chambers of E-PLATES. Twenty four hours after seeding NK-cells at a density of 16:1 (E/T ratio) were pre-incubated with the different concentrations of the MEK inhibitor PD 98059 for thirty minutes and then added to A549 cells at the indicated time point (arrow). The viability of A549 cells were continually monitored using the RT-CES system. (FIG. 31B) The extent of NK-92 mediated cytolystic activity in the presence of MEK inhibitor was calculated at the indicated times post-NK addition as described in materials and methods section. (FIG. 31C) The effect of PI3 Kinase inhibitor Wortmannin on NK-92 mediated cytolysis of A549 cells. The cells were treated with the inhibitor as described in (FIG. 31A). (FIG. 31D) Percent cytolytic activity of NK-92 cells was calculated at the end of the experiment described in (FIG. 31C).
Cytolytic analysis. Target cells were seeded into the chambers of either 16-chamber or 96-chamber E-plate in 100 μL of media. Cell growth was dynamically monitored using the RT-CES system for a period of 24-34 hours, depending on the experiment until they reached log growth phase and formed a monolayer. […]
as §1

H460 cells = experiment: Time-dependent cell index of cancer cells treated with anticancer drug (cell-substrate impedance)
Procedure: In this experiment, H460 cells were introduced into chambers of a 16X cell-substrate impedance monitoring cartridge (16X E-Plate). The cartridge was positioned on a cartridge station that was located in an incubator maintaining conditions of 37° C. and 5% CO2. The cells were cultured and treated at their exponential growth phase with different concentrations of paclitaxel. The dynamic response of the cells to different doses of paclitaxel was monitored by monitoring cell-substrate impedance in real time every 15 minutes for 50 hours after treatment using a cell-substrate impedance monitoring system. The cell-substrate impedance monitoring system calculated the cell index at each time point monitored and plotted the cell index as a function of time. […] However, the cell index reached a minimum at a time dependent on the compound concentration, between about 15 hours and 20 hours after compound addition. After that point, there was a gradual increase in cell index in these chambers.
H460 cells were introduced into chambers of a 16X cell-substrate impedance monitoring cartridge (16X E-Plate). […] The dynamic response of the cells to different doses of AC101103 was monitored by measuring impedance in real time every 30 minutes for about 20 hours after treatment on the cell-substrate monitoring system. […]

[2] = A549 cells, highest concentration

COc1cccc(-c2cc(=O)c3ccccc3o2)c1N [PD98059]
effect of inhibitor alone on target cell baseline (A549 cells; A549 target cells incubated with inhibitor alone, no NK cells): minimal effect on the baseline | inhibition of NK-92-mediated cytolysis ([1]; NK-92 pre-incubated with inhibitor, then added to A549 target cells): dose-dependently inhibited NK-92-mediated cytolysis of A549 cells | time dependence of percent inhibition of cytolysis ([1]; different time points after NK addition): consistent inhibition of cytolysis at all the indicated time points

CC(=O)O[C@H]1C(=O)[C@@]2(C)[C@H]([C@H](OC(=O)c3ccccc3)[C@]3(O)C[C@H](OC(=O)[C@H](O)[C@@H](NC(=O)c4ccccc4)c4ccccc4)C(C)=C1C3(C)C)[C@]1(OC(C)=O)CO[C@@H]1C[C@@H]2O [paclitaxel]
initial effect on Cell Index (with Annexin V staining) (A549 cells; [2]): initially induces a cytotoxic effect which is mainly due to cell death | later course of Cell Index after the initial effect (A549 cells; [2]): recover from the initial cytotoxic effect of the drug and start to re-proliferate | time over which cell index exhibited a near-constant value (H460 cells; 33 nanomolar): about 15 hours | cell index response after compound addition (H460 cells; concentrations between 67 nanomolar and 500 nanomolar): gradual decrease in cell index
